# From patent publication US12186392B2, “Combination therapy of an anti CD20 antibody with a BTK inhibitor” (Ono Pharmaceutical Co., Ltd., priority 2013, dated 2025)
# Columns and labels:
# [1] = system: NK cell-mediated cytotoxicity; details: Kohrt H E et al., Blood 123, 1957-1960, 2014; cited from earlier work
# TMD8 (ABC-DLBCL) cells = test: Antitumor activity study of compound A or compound B (in diet) in combination with RTX in TMD8 xenograft model (Example 3); format: in vivo, SCID mice; details: for Tumor growth inhibition (TGI): vs vehicle group, RTX 3 mg/kg i.v. Q7Dx3, compound A 0.0037% in diet (6 mg/kg/day), compound B 0.012% in diet (20 mg/kg/day)
# Procedure: Mice were xenografted on DO. […] Mice received one IV injection of Rituximab (at 3 mg/kg) once a week (D14 (Day 0), 21 (Day 7) and 28 (Day 14): Q7D×3). Tumor volumes were monitored and recorded at Day 3, Day 7, Day 11, Day 14, Day 18 and Day 21.
# Female C.B-17/lcr-SCID/SCIDJcl mice (Clea Japan Inc., age at initiation of experiment: 6 weeks; hereinafter referred to as “Scid mice”) were used. The mice were kept in metal mouse cages, 3 to 5 to a cage, and underwent about 1 week acclimation period prior to being subjected to the experiment. While at our facility, the animals were allowed solid feed, CRF-1 (Oriental Yeast Co., Ltd.) and tap water (from an automatic dispenser) ad libitum. Excrement was processed with an automated cleaning system. The general condition of the animals was observed upon receipt and at the completion of acclimation. Animals having no problems with general condition were used in the experiment.
# TMD8 was established from cells of a patient with diffuse large B-cell lymphoma (Tohda S et al., Leuk Res., 2006, 30: 1385-90). RPMI Medium 1640 (Invitrogen Corporation, hereinafter referred to as “RPMI”) containing 10 vol % inactivated FBS and 1 vol % Penicillin-Streptomycin liquid (Invitrogen Corporation) was prepared and used as medium. The medium was stored at 5° C. (allowable range: 1° C. to 9° C.). The cell suspension of 4×106 to 2.0×10^7 cells per dish was inoculated in a 150 mm dish containing the medium. The plates were incubated at 37° C., 5% CO2, 95% air.
# At Day 0, the pellet was suspended in RPMI previously cooled on ice to obtain a 2×10^8 cells/mL cell suspension. The RPMI cell suspension and equal volume of BD Matrigel GFR (BD Biosciences) were combined to prepare a 1×10^8 cells/mL cell suspension. This was used as the cell suspension for implantation. Then, 0.1 mL of cell suspension was subcutaneously injected in the right flank of the mice under pentobarbital anesthesia, using a 25-gauge needle (Terumo Corporation).
# The long axis and short axis of the tumors were measured with electronic calipers (Mitutoyo Corporation) every 2 or 4 days from TMD8 implantation to the final assessment day.
# The primary endpoint was tumor volume on the final assessment day. In addition, the tumor growth inhibition rate (TGI, %) in the treatment groups versus the vehicle group was calculated. Temporal change in tumor volume and body weight from Day 0 were used as secondary endpoints. Tumor volume was calculated with the following formula. Tumor volume=Long axis of tumor×(short axis of tumor)2×0.5
# The experiment in Example 3 was performed according to the method described in Example 1 except for the following “substance vehicle”, “route of drug administration” and “treatment schedule”
# The comparative substance, ibrutinib (hereinafter referred to as “compound B”), was stored in sealed containers at ambient temperature, protected from light.
# The dose of compound A or compound B corresponds to a daily intake of 6 or 20 mg/kg of body weight.
# Treatment groups: Mice fed the same diet containing compound A or compound B after randomization. Rituximab was administered intravenously at a 3 mg/kg once weekly.
# Tumor diameter was measured and tumor volume was calculated every 3 or 4 days after group assignment.
smiles,measurement,setting,value
"C=CC(=O)N1CCC[C@@H](n2nc(-c3ccc(Oc4ccccc4)cc3)c3c(N)ncnc32)C1 [compound B, ibrutinib]",Effect on RTX-dependent NK cell-mediated cytotoxicity,[1],antagonizes RTX-dependent NK cell-mediated cytotoxicity
same,Tumor growth inhibition (TGI),TMD8 (ABC-DLBCL) cells; day 0,0.4%
same,Tumor growth inhibition (TGI),TMD8 (ABC-DLBCL) cells; day 3,3.2%
same,Tumor growth inhibition (TGI),TMD8 (ABC-DLBCL) cells; day 7,19.1%
same,Tumor growth inhibition (TGI),TMD8 (ABC-DLBCL) cells; day 11,34.91%
same,Tumor growth inhibition (TGI),TMD8 (ABC-DLBCL) cells; day 14,40.2%
same,Tumor growth inhibition (TGI),TMD8 (ABC-DLBCL) cells; day 18,39.2%
same,Tumor growth inhibition (TGI),TMD8 (ABC-DLBCL) cells; day 21,47.1%
same,Statistical significance observed after Day,"TMD8 (ABC-DLBCL) cells; monotherapy, RTX 3 mg/kg i.v., compound A 0.0037%, compound B 0.012% in diet",> 11 days
